The term IC50 denotes the concentration that gives 50% inhibition. The Dmax is the greatest extent of degradation seen. Lower therefore signals a partial loss of target.

Molecules are shown by their SMILES.

In assay [1] the target is T1, BCL6 (Homo sapiens (Human), UniProt P41182). Put plainly: BCL6 TR-FRET assay (BCL6-Avitag-Biotin / BCoR-Cy5 peptide). The settings on record: read-out: IC50. Type of assay: binding. In a few lines: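 TR-FRET displacement assay: biotinylated His-SUMO-BCL6-Avitag (2 nM) pre-incubated 30 min at room temperature with compound (12-point 3-fold titration), then BCoR-Cy5 peptide (100 nM) and Eu-streptavidin (2 nM) added. Buffer: 50 mM HEPES pH 7.5, 125 mM NaCl, 0.01% Triton X, glutathione or DTT, 0.03% BSA. Read after 2 h.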
For orientation: In TR-FRET formats the signal depends on donor and acceptor labels being close together.

For assay [2], the target named is T1, BCL6. The assay can be described thus: Immunofluorescence high content imaging of BCL6 degradation in T47D cells. Type of assay: cell-based. Particulars: T47D. In a few lines:
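Seed T47D in RPMI1640-10% FBS to reach ~70-90% confluence at endpoint; add degrader next day (11-point 3-fold series, top 0.1 or 1 μM final) for 3 days. Then fix, permeabilize, stain BCL6 with nuclear Hoechst, and image.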

Take `CNC(=O)COc1cc2cc(Nc3nc(N4CCC5(CCN(CC6CCN(c7ccc8c(c7)C(=O)N(C7CCC(=O)NC7=O)C8=O)CC6)C5)CC4)ncc3Cl)ccc2n(C(C)C)c1=O` (stereo not shown) [compound 507, 2-{[6-({5-chloro-2-[2-({1-[2-(2,6-dioxopiperidin-3-yl)-1,3-dioxo-2,3-dihydro-1H-isoindol-5-yl]piperidin-4-yl}methyl)-2,8-diazaspiro[4.5]decan-8-yl]pyrimidin-4-yl}amino)-2-oxo-1-(propan-2-yl)-1,2-dihydroquinolin-3-yl]oxy}-N-methylacetamide]: the IC50 at BCL6 [1] was under 10 nM. The Dmax on BCL6 [2] was at least 70%.
Take `CNC(=O)COc1cc2cc(Nc3nc(N4CCC5(CCN(CC6CCN(c7cccc8c7C(=O)N(C7CCC(=O)NC7=O)C8=O)CC6)C5)CC4)ncc3Cl)ccc2n(C(C)C)c1=O` (stereo not shown) [compound 508, 2-{[6-({5-chloro-2-[2-({1-[2-(2,6-dioxopiperidin-3-yl)-1,3-dioxo-2,3-dihydro-1H-isoindol-4-yl]piperidin-4-yl}methyl)-2,8-diazaspiro[4.5]decan-8-yl]pyrimidin-4-yl}amino)-2-oxo-1-(propan-2-yl)-1,2-dihydroquinolin-3-yl]oxy}-N-methylacetamide]: the IC50 on BCL6 [1] is under 10 nM. This compound yielded a Dmax at BCL6 [2] of at least 70%.
Regarding `CNC(=O)COc1cc2cc(Nc3nc(N4CCC(CN5CCC6(C5)CN(c5ccc7c(c5)C(=O)N(C5CCC(=O)NC5=O)C7=O)C6)CC4)ncc3Cl)ccc2n(C(C)C)c1=O` (stereo not shown) [compound 510, 2-{[6-({5-chloro-2-[4-({2-[2-(2,6-dioxopiperidin-3-yl)-1,3-dioxo-2,3-dihydro-1H-isoindol-5-yl]-2,6-diazaspiro[3.4]octan-6-yl}methyl)piperidin-1-yl]pyrimidin-4-yl}amino)-2-oxo-1-(propan-2-yl)-1,2-dihydroquinolin-3-yl]oxy}-N-methylacetamide], the 50% inhibitory concentration (IC50) on BCL6 [1] was under 10 nM. The compound further had a Dmax at BCL6 [2] of 50 to 70%.
In the same order, the values of `CNC(=O)COc1cc2cc(Nc3nc(N4CC5(CCN(CC6CCN(c7cccc8c7C(=O)N(C7CCC(=O)NC7=O)C8=O)CC6)C5)C4)ncc3Cl)ccc2n(C(C)C)c1=O` (stereo not shown) [compound 511, 2-{[6-({5-chloro-2-[6-({1-[2-(2,6-dioxopiperidin-3-yl)-1,3-dioxo-2,3-dihydro-1H-isoindol-4-yl]piperidin-4-yl}methyl)-2,6-diazaspiro[3.4]octan-2-yl]pyrimidin-4-yl}amino)-2-oxo-1-(propan-2-yl)-1,2-dihydroquinolin-3-yl]oxy}-N-methylacetamide] are under 10 nM and at least 70%.
In the same order, the values of `CNC(=O)COc1cc2cc(Nc3nc(N4CCC(CN5CCC6(CC5)CCN(c5cccc7c5C(=O)N(C5CCC(=O)NC5=O)C7=O)C6)CC4)ncc3Cl)ccc2n(C(C)C)c1=O` (stereo not shown) [compound 512, 2-{[6-({5-chloro-2-[4-({2-[2-(2,6-dioxopiperidin-3-yl)-1,3-dioxo-2,3-dihydro-1H-isoindol-4-yl]-2,8-diazaspiro[4.5]decan-8-yl}methyl)piperidin-1-yl]pyrimidin-4-yl}amino)-2-oxo-1-(propan-2-yl)-1,2-dihydroquinolin-3-yl]oxy}-N-methylacetamide] are under 10 nM and 50 to 70%.
Taken in the same sequence, the figures for `CNC(=O)COc1cc2cc(Nc3nc(N4CCC5(CCN(CC6CCN(c7cccc8c7C(=O)N(C7CCC(=O)NC7=O)C8=O)CC6)CC5)C4)ncc3Cl)ccc2n(C(C)C)c1=O` (stereo not shown) [compound 513, 2-{[6-({5-chloro-2-[8-({1-[2-(2,6-dioxopiperidin-3-yl)-1,3-dioxo-2,3-dihydro-1H-isoindol-4-yl]piperidin-4-yl}methyl)-2,8-diazaspiro[4.5]decan-2-yl]pyrimidin-4-yl}amino)-2-oxo-1-(propan-2-yl)-1,2-dihydroquinolin-3-yl]oxy}-N-methylacetamide] were under 10 nM and at least 70%.
As for `CNC(=O)COc1cc2cc(Nc3nc(N4CCC5(CC4)CCN(C4CCN(c6ccc7c(c6)C(=O)N(C6CCC(=O)NC6=O)C7=O)CC4)C5)ncc3Cl)ccc2n(C(C)C)c1=O` (stereo not shown) [compound 514, 2-[(6-{[5-chloro-2-(2-{1-[2-(2,6-dioxopiperidin-3-yl)-1,3-dioxo-2,3-dihydro-1H-isoindol-5-yl]piperidin-4-yl}-2,8-diazaspiro[4.5]decan-8-yl)pyrimidin-4-yl]amino}-2-oxo-1-(propan-2-yl)-1,2-dihydroquinolin-3-yl)oxy]-N-methylacetamide], on BCL6 [1], the IC50 is under 10 nM. The same compound showed a Dmax at BCL6 [2] of under 50%.
In the same order, the values of `CNC(=O)COc1cc2cc(Nc3nc(N4CCC(N5CCC6(CCN(c7ccc8c(c7)C(=O)N(C7CCC(=O)NC7=O)C8=O)C6)CC5)CC4)ncc3Cl)ccc2n(C(C)C)c1=O` (stereo not shown) [compound 515, 2-[(6-{[5-chloro-2-(4-{2-[2-(2,6-dioxopiperidin-3-yl)-1,3-dioxo-2,3-dihydro-1H-isoindol-5-yl]-2,8-diazaspiro[4.5]decan-8-yl}piperidin-1-yl)pyrimidin-4-yl]amino}-2-oxo-1-(propan-2-yl)-1,2-dihydroquinolin-3-yl)oxy]-N-methylacetamide] are 10 to 50 nM and at least 70%.
Turning to `CNC(=O)COc1cc2cc(Nc3nc(N4CCN(CC5CC6(CCN(c7ccc8c(c7)C(=O)N(C7CCC(=O)NC7=O)C8=O)CC6)C5)CC4)ncc3Cl)ccc2n(C(C)C)c1=O` (stereo not shown) [compound 516, 2-{[6-({5-chloro-2-[4-({7-[2-(2,6-dioxopiperidin-3-yl)-1,3-dioxo-2,3-dihydro-1H-isoindol-5-yl]-7-azaspiro[3.5]nonan-2-yl}methyl)piperazin-1-yl]pyrimidin-4-yl}amino)-2-oxo-1-(propan-2-yl)-1,2-dihydroquinolin-3-yl]oxy}-N-methylacetamide], at BCL6 [1], the IC50 is under 10 nM. At BCL6 [2], this compound had a maximal degradation (Dmax) of 50 to 70%.
As for `CNC(=O)COc1cc2cc(Nc3nc(N4CCN(CC5CC6(CCN(c7cccc8c7C(=O)N(C7CCC(=O)NC7=O)C8=O)CC6)C5)CC4)ncc3Cl)ccc2n(C(C)C)c1=O` (stereo not shown) [compound 517, 2-{[6-({5-chloro-2-[4-({7-[2-(2,6-dioxopiperidin-3-yl)-1,3-dioxo-2,3-dihydro-1H-isoindol-4-yl]-7-azaspiro[3.5]nonan-2-yl}methyl)piperazin-1-yl]pyrimidin-4-yl}amino)-2-oxo-1-(propan-2-yl)-1,2-dihydroquinolin-3-yl]oxy}-N-methylacetamide], the 50% inhibitory concentration (IC50) on BCL6 [1] was under 10 nM. The compound also returned a maximal degradation (Dmax) on BCL6 [2] of at least 70%.
In the same order, the values of `CNC(=O)COc1cc2cc(Nc3nc(N4CCC(O[C@H]5C[C@H](N6CCN(c7cccc8c7C(=O)N(C7CCC(=O)NC7=O)C8=O)CC6)C5)CC4)ncc3Cl)ccc2n(C(C)C)c1=O` (stereo partly shown) [compound 518, 2-({6-[(5-chloro-2-{4-[(1r,3r)-3-{4-[2-(2,6-dioxopiperidin-3-yl)-1,3-dioxo-2,3-dihydro-1H-isoindol-4-yl]piperazin-1-yl}cyclobutoxy]piperidin-1-yl}pyrimidin-4-yl)amino]-2-oxo-1-(propan-2-yl)-1,2-dihydroquinolin-3-yl}oxy)-N-methylacetamide] are 10 to 50 nM and at least 70%.

The values above are taken from patent publication US12310975B2, “Modulators of BCL6 proteolysis and associated methods of use” (Arvinas Operations, Inc., priority 2019, dated 2025).
